Data reported in patent US20030013690A1, “Increasing phosphorus uptake from the gut of dairy cows by supplementing 1alpha-hydroxylated vitamin D compounds” (priority 2001, published 2003).

What was measured:
Format in all cases: in vivo
lactating dairy cows [1] = test: Dairy cow efficacy trial: P and Ca concentrations in urine
From the text: (§1) Eight multiparous lactating dairy cows (about 150 days in milk at start of the experiment) were blocked into two groups according to milk yield. Cows in each block were assigned randomly to four different treatments. The experimental design was a 4×4 Latin Square. Each period was four weeks in length. The first three weeks were used as an adaptation period, and measurements were taken during the last week of each period.
(§2) The four treatments were:
(§3) 1) High P diet. Dietary P at 0.47% (DM basis)
(§4) 2) Diet 1 plus 1-α-OHD3 (75 μg/cow/day)
(§5) 3) Low P diet. Dietary P at 0.35% (DM basis)
(§6) 4) Diet 3 plus 1-α-OHD3 (75 μg/cow/day).
(§7) During the last two days of each period, six urine samples were collected at 8 am, 4 pm, and 11 pm on the first day and 12 noon, 8 pm, and 6 am on the second day. Urine samples were then composited for phosphorus, calcium, and creatinine analysis. Creatinine was measured to enable an estimate of urine output. Milk samples were obtained during four days of each period. The milk sample was split; one-half was mixed with a preservative, and the other half was refrigerated without a preservative. The samples with preservative were analyzed for milk composition by Wisconsin Ag Source Milk Analysis Laboratory (Menomonie, Wis.), and the samples without preservative were composited according to milk yield and analyzed for mineral composition in the Soil and Plant Analysis Laboratory, Department of Soil Science, University of Wisconsin-Madison.

lactating dairy cows [2] = test: Dairy cow efficacy trial: feed intake, fecal P excretion, P utilization
From the text: as §1, §2, §3, §4, §5, §6
The diets (Table 1) were fed ad libitum as a total mixed ration once daily. The cows were housed in individual tie stalls. Daily feed offered and refused was recorded for individual cows. Feed refusals were restricted to 10% of intake on an as-fed basis. Daily samples of silage and refusals were composited weekly for chemical analysis. Samples of individual feed ingredients were collected once weekly. The dry matter content of feed ingredients was determined by oven drying at 60° C. for 48 hr. Diet formulations were adjusted weekly, if necessary, to account for changes in dry matter content of diet ingredients. All of the feed ingredients were analyzed for chemical composition. Alfalfa and corn silage were analyzed weekly for neutral detergent fiber (NDF), acid detergent fiber (ADF), and crude protein (CP). High moisture ear corn (HMEC), soybean meal (SBM), roasted soybean meal (RSB), and blood meal (BM) were composited every four weeks (one sample per period) and analyzed for CP.
Feed DM digestibility was determined using Yb as an external marker. A Yb solution, prepared by dissolving 2.24 g of YbCl3 (1 g of Yb) in 30 ml of water was sprayed onto 500 g of alfalfa silage (DM basis). The Yb-marked alfalfa silage was mixed into the total mixed ration to give 40 mg of Yb/kg of dietary DM. The total mixed ration labeled with Yb was fed for nine days. During the last two days of Yb feeding (last two days of each period), eight fecal grab samples were collected from each cow at 7 am, 12 noon, 6 pm, and 11 pm on the first day and at 9 am, 3 pm, 9 pm, and 5 am on the second day. Fecal samples were dried at 60° C. for 72 h and ground through a 2-mm Wiley mill screen. Fecal samples were dry-ashed in duplicate (Combs and Satter, 1992). During the last four days of each period, feed refusals for each cow were collected and composited into one sample per cow per period. These samples were dry-ashed in the same way as feces, and analyzed for Yb. Concentrations of Yb (ppm) in feed, feed refusals, and fecal samples were determined by direct current plasma spectroscopy [(Combs and Satter, 1992); Spectra Metrics, Inc., subsidiary of Beckman Instruments, Inc., Andover, Mass.]. The DM digestibility (percentage) for individual cows was calculated as follows: DM digestibility (%)=(1-concentration of Yb in DM consumed/average concentration of Yb in each cow's fecal samples)100. Digestibility of dietary P in different treatments was calculated using P input-output data.

lactating dairy cows [3] = test: Dairy cow efficacy trial: milk yield and milk composition
From the text: as §1, §2, §3, §4, §5, §6
(§8) Cows were weighed two days in a row before the trial started and two days in a row when it finished. Daily milk weights were recorded. All cows were injected with bovine somatotropin (Posilac®). Blood samples were collected on the last day of weeks 1, 2, and 3 of each period. During week 4, blood samples were obtained on each of the last three days. Blood was obtained 5 hours after feeding from the coccygeal vein or artery in a gel and clot co-activator vacutainer. Samples were centrifuged the next day to separate the serum. Inorganic phosphorus and calcium analyses were performed on serum samples by Marshfield Laboratories, Marshfield, Wis.
as §7

lactating dairy cows [4] = test: Dairy cow efficacy trial: P and Ca concentrations in blood serum
From the text: as §1, §2, §3, §4, §5, §6, §8

[5] = treatment 2: high P diet (0.47% P) plus 75 μg/cow/day
[6] = treatment 4: low P diet (0.35% P) plus 75 μg/cow/day
[7] = both the high- and low-P treatments, highly significant

## C=C1/C(=C\C=C2/CCC[C@]3(C)[C@@H]([C@H](C)CCCC(C)C)CC[C@@H]23)C[C@@H](O)C[C@@H]1O [1-α-OHD3, 1α-hydroxyvitamin D3]
Lactating dairy cows [1]; 75 μg/cow/day
  Effect on calcium excretion via urine: increased
Lactating dairy cows [1]; high-P treatment, at 5.15 mg P per dl of urine
  Urinary P as share of dietary P intake: about 2%
Lactating dairy cows [1]; [5]
  Urine calcium: 12.03 mg/dL
  Urine phosphorus: 5.15 mg/dL
Lactating dairy cows [1]; [6]
  Urine calcium: 15.46 mg/dL
  Urine phosphorus: 0.40 mg/dL
Lactating dairy cows [2]; 75 μg/cow/day
  Reduction in fecal P excretion due to supplementation: 14%
Lactating dairy cows [2]; both the high- and low-P treatments, 75 μg/cow/day
  Reduction of phosphorus excretion in manure: about 10 g per day
Lactating dairy cows [2]; daily inclusion of 75 μg in the cows' diets
  Effect on fecal P excretion: reduced
Lactating dairy cows [2]; evidenced by decreased fecal P and increased serum P
  Effect on P uptake from the gut: increased
Lactating dairy cows [2]; [5]
  Fecal DM P: 0.99%
  Fecal P: 71.3 g/day
  Milk and Fecal P: 109.5 g/day
Lactating dairy cows [2]; [6]
  Fecal DM P: 0.77%
  Fecal P: 55.4 g/day
  Milk and Fecal P: 93.8 g/day
Lactating dairy cows [3]; supplementation of 75 μg
  Effect on milk production: unaffected
Lactating dairy cows [3]; [5]
  Milk yield: 36.9 kg/day
Lactating dairy cows [3]; [6]
  Milk yield: 37.6 kg/day
Lactating dairy cows [4]; [7]
  Effect on concentration of Ca in blood serum: increase
  Effect on concentration of P in blood serum: increase
Lactating dairy cows [4]; [5]
  Blood serum calcium: 10.32 mg/dL
  Blood serum phosphorus: 8.77 mg/dL
Lactating dairy cows [4]; [6]
  Blood serum calcium: 10.14 mg/dL
  Blood serum phosphorus: 7.63 mg/dL
